{"source": "paper PMC9081329", "about": "“Pharmacokinetics, Mass Balance, Excretion, and Tissue Distribution of Plasmalogen Precursor PPI-1011” (Frontiers in Cell and Developmental Biology, 2022)", "key": {"[1]": {"assay": "Formulation concentration", "type": "physicochemical"}, "[2]": {"design": "method as in manuscript in preparation", "conditions": "doses up to 1,000 mg/kg in adult rats; ref manuscript in preparation; cited from earlier work"}, "[3]": {"design": "method as in manuscript in preparation", "conditions": "28-day repeat dosing at 400 mg/kg in primates; ref manuscript in preparation; cited from earlier work"}}, "note": "Where two headings read alike, the source gives them in different places.", "data": [{"smiles": "CC/C=C\\C/C=C\\C/C=C\\C/C=C\\C/C=C\\C/C=C\\CCC(=O)OC(COCCCCCCCCCCCCCCCC)COC(=O)CCCCC1CCSS1", "note": "(stereo not drawn) [PPI-1011, 1-O-hexadecyl-2-O-cis-4,7, 10, 13, 16, 19-docosahexaenoyl-3-O-lipoyl glycerol]", "values": [{"measurement": "Concentration amenable to formulation", "setting": "[1]", "value": "≤ 500000", "unit": "µg/mL"}, {"measurement": "Toxicity or adverse effects", "setting": "[2]", "value": "no toxicity or adverse effects"}, {"measurement": "Toxicity or adverse effects", "setting": "[3]", "value": "no toxicity or adverse effects"}]}]}
